Assay results published in US7312322B1, “Genetic sequences encoding steroid and juvenile hormone receptor polypeptides and insecticidal modalities therefor” (priority 1998, dated 2007).

Tested on: in vitro-translated complex of the M. persicae EcR and USP polypeptides
Test: Tritiated ponasterone A filter binding assay with in vitro-translated polypeptides
Set-up: species or system Myzus persicae
Conditions: tritiated ponasterone A 2.2 nM, 90 min, room temperature; complex versus USP or EcR polypeptide alone (FIG. 4)
Protocol: In vitro-translated Myzus persicae EcR (MpEcR) polypeptide and an in vitro-translated M. persicae USP (MpUSP) polypeptide were produced labelled with [^35S]Methionine, using the Promega TNT-Coupled Reticulocyte Lysate System. Each batch of lysate contained 100-200 mg/ml of endogenous proteins (using BSA as a standard). The products were analysed by SDS-PAGE and radioautography. The results confirmed that the cloned cDNAs encode proteins of the sizes predicted from the length of putative open reading frames of the cDNAs present in plasmids pMpEcR and pMPUSP. The yields of EcR and USP were similar as assessed by SDS-PAGE.
In functional assays, DNA plasmids pMpEcR (AGAL Accession No. NM99/04567; […]) or pMpUSP (AGAL Accession No. NM99/04568; […]), which have been constructed using the vector pBK-CMV, and […] of appropriate TNT RNA Polymerase were added to […] of reaction mix which contained TNT Lysate, TNT Reaction Buffer, amino acid mixture, Rnasin Ribonuclease Inhibitor and nuclease-free water in volumes specified in the manufactureFS protocol. […]
After thawing the translation products, […] aliquots of the reaction mixture containing M. persicae EcR and USP polypeptides were combined to promote formation of the EcR/USP complex. […] The receptor bound ligand was quantified using a TriCarb 2100TR scintillation counter.

In the case of CC(C)CC[C@@H](O)[C@](C)(O)[C@H]1CC[C@@]2(O)C3=CC(=O)[C@@H]4C[C@@H](O)[C@@H](O)C[C@]4(C)[C@H]3CC[C@]12C [PNA, ponasterone A], the “amount of ligand bound to EcR/USP complex” value is reported as “significantly higher amounts”.
